Measured values published in patent US9988430B2, “Stable GLP-1 based GLP-1/glucagon receptor co-agonists” (Novo Nordisk A/S, priority 2014, dated 2018).
*1 amine or outer side, *2 acyl side, *3 side chain or, on linkers, in order; H or OH if unused. Where a SMILES comes first, the peptide text is derived from it. Bridges are numbered along the chain shown (N, C = ends). Roman numbers before positions name the chains, in order. Side-chain parts run from the residue outwards. [ ]: non-standard residue; d: D form. The star is where a group is joined. C18 diacid = O=C(O)CCCCCCCCCCCCCCCCC(=O)*; γGlu = O=C(O)[C@H](CCC(=O)[*:2])N[*:1]; Desaminohistidyl = O=C(CCc1c[nH]cn1)*; Ac4c = NC1(C(=O)O)CCC1; AEEA = NCCOCCOCC(=O)O; Aib = CC(C)(N)C(=O)O

target: T1, human GLP-1 receptor (Homo sapiens, UniProt P43220); assay: Assay (II)(a): GLP-1 receptor binding, [125I]GLP-1 displacement, SPA on BHK membranes; settings: displacement of [125I]GLP-1, membranes with human GLP-1 receptor; read-out: IC50 GLP-1R
T1 construct: expressed in transfected cells; host or cells: membranes of BHK cells, parent line BHKTS13, clone FCW467-12A
Summary of the method: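 Membranes from BHK cells expressing human GLP-1 receptor with WGA SPA beads, [125I]GLP-1(7-36)NH2 (480 pM added solution) and compound in HEPES pH 7.4 buffer with EGTA, MgCl2, Tween 20. Incubated 2 h at 30° C; SPA counts fitted by non-linear regression to IC50 in nM.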

T1 sequence (P43220 24-463): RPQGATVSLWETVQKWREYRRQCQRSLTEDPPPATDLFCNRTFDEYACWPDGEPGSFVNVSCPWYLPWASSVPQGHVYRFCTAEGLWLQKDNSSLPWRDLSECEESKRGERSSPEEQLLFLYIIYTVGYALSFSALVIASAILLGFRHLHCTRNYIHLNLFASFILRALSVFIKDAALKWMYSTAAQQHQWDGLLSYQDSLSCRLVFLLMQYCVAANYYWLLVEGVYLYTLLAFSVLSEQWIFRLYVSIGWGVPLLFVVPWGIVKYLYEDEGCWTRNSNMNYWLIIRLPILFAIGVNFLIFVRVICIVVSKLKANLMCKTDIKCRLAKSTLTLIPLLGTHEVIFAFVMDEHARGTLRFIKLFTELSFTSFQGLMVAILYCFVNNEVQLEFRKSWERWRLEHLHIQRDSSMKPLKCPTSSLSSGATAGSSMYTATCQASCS

Compared with `CC[C@H](C)[C@H](NC(=O)[C@H](Cc1ccccc1)NC(=O)[C@H](CCC(=O)O)NC(=O)[C@H](CCCNC(=N)N)NC(=O)[C@H](C)NC(=O)[C@H](C)NC(=O)[C@H](CCC(N)=O)NC(=O)[C@H](CCC(=O)O)NC(=O)[C@H](CCC(=O)O)NC(=O)[C@H](CC(C)C)NC(=O)[C@H](Cc1ccc(O)cc1)NC(=O)[C@H](CCCNC(=N)N)NC(=O)[C@H](CO)NC(=O)[C@@H](NC(=O)[C@H](CC(=O)O)NC(=O)[C@H](CO)NC(=O)[C@@H](NC(=O)[C@H](Cc1ccccc1)NC(=O)[C@@H](NC(=O)CNC(=O)[C@H](Cc1c[nH]cn1)NC(=O)C(C)(C)NC(=O)CCc1c[nH]cn1)[C@@H](C)O)[C@@H](C)O)C(C)C)C(=O)N[C@@H](C)C(=O)N[C@@H](Cc1c[nH]c2ccccc12)C(=O)N[C@@H](CC(C)C)C(=O)N[C@@H](CC(C)C)C(=O)N[C@@H](CCCCNC(=O)CNC(=O)[C@H](CO)NC(=O)[C@H](CCC(=O)O)NC(=O)CNC(=O)[C@H](CO)NC(=O)CC[C@H](NC(=O)CC[C@H](NC(=O)CCCCCCCCCCCCCCCCC(=O)O)C(=O)O)C(=O)O)C(=O)N[C@H](C(N)=O)[C@@H](C)O` [Example 7, N^ε34-[2-[[(2S)-2-[[(2S)-4-carboxy-2-[[2-[[(2S)-2-[[(4S)-4-carboxy-4-[[(4S)-4-carboxy-4-(17-carboxyheptadecanoylamino)butanoyl]amino]butanoyl]amino]-3-hydroxypropanoyl]amino]acetyl]amino]butanoyl]amino]-3-hydroxypropanoyl]amino]acetyl]-[Imp7,Aib8,His9,Arg18,Glu22,Arg26,Leu33,Thr35]-GLP-1-(7-35)-peptide amide] (I: Desaminohistidyl-[Aib]HGTFTSDVSRYLEEQAAREFIAWLLKT-NH2 / II: {C18 diacid-γGlu-γGlu}-SGESG; amide I:27-II:C), `CC[C@H](C)[C@H](NC(=O)[C@H](Cc1ccccc1)NC(=O)[C@H](CCC(=O)O)NC(=O)[C@H](CCCNC(=N)N)NC(=O)[C@H](C)NC(=O)[C@H](C)NC(=O)[C@H](CCC(N)=O)NC(=O)[C@H](CCC(=O)O)NC(=O)[C@H](CCC(=O)O)NC(=O)[C@H](CC(C)C)NC(=O)[C@H](Cc1ccc(O)cc1)NC(=O)[C@H](CCCCN)NC(=O)[C@H](CO)NC(=O)[C@@H](NC(=O)[C@H](CC(=O)O)NC(=O)[C@H](CO)NC(=O)[C@@H](NC(=O)[C@H](Cc1ccccc1)NC(=O)[C@@H](NC(=O)CNC(=O)[C@H](Cc1c[nH]cn1)NC(=O)C1(NC(=O)CCc2c[nH]cn2)CCC1)[C@@H](C)O)[C@@H](C)O)C(C)C)C(=O)N[C@@H](C)C(=O)N[C@@H](Cc1c[nH]c2ccccc12)C(=O)N[C@@H](CC(C)C)C(=O)N[C@@H](CC(C)C)C(=O)N[C@@H](CCCCNC(=O)CNC(=O)[C@H](CO)NC(=O)[C@H](CCC(=O)O)NC(=O)CNC(=O)[C@H](CO)NC(=O)CC[C@H](NC(=O)CC[C@H](NC(=O)CCCCCCCCCCCCCCCCC(=O)O)C(=O)O)C(=O)O)C(=O)N[C@H](C(N)=O)[C@@H](C)O` [Example 9, N^ε34-[2-[[(2S)-2-[[(2S)-4-carboxy-2-[[2-[[(2S)-2-[[(4S)-4-carboxy-4-[[(4S)-4-carboxy-4-(17-carboxyheptadecanoylamino)butanoyl]amino]butanoyl]amino]-3-hydroxypropanoyl]amino]acetyl]amino]butanoyl]amino]-3-hydroxypropanoyl]amino]acetyl]-[Imp7,Acb8,His9,Lys18,Glu22,Arg26,Leu33,Thr35]-GLP-1-(7-35)-peptide amide] (I: Desaminohistidyl-[Ac4c]HGTFTSDVSKYLEEQAAREFIAWLLKT-NH2 / II: {C18 diacid-γGlu-γGlu}-SGESG; amide I:27-II:C) is 5-fold lower in IC50: 0.5 nM for the first, 0.1 nM for the second.

First: CC[C@H](C)[C@H](NC(=O)[C@H](Cc1ccccc1)NC(=O)[C@H](CCC(=O)O)NC(=O)[C@H](CCCNC(=N)N)NC(=O)[C@H](C)NC(=O)[C@H](C)NC(=O)[C@H](CCCNC(=N)N)NC(=O)CNC(=O)[C@H](CCC(=O)O)NC(=O)[C@H](CC(C)C)NC(=O)[C@H](Cc1ccc(O)cc1)NC(=O)[C@H](CCCCN)NC(=O)[C@H](CO)NC(=O)[C@@H](NC(=O)[C@H](CC(=O)O)NC(=O)[C@H](CO)NC(=O)[C@@H](NC(=O)[C@H](Cc1ccccc1)NC(=O)[C@@H](NC(=O)CNC(=O)[C@H](Cc1c[nH]cn1)NC(=O)[C@H](C)NC(=O)CCc1c[nH]cn1)[C@@H](C)O)[C@@H](C)O)C(C)C)C(=O)N[C@@H](C)C(=O)N[C@@H](Cc1c[nH]c2ccccc12)C(=O)N[C@@H](CC(C)C)C(=O)N[C@@H](CC(C)C)C(=O)N[C@@H](CCCCNC(=O)COCCOCCNC(=O)COCCOCCNC(=O)CC[C@H](NC(=O)CC[C@H](NC(=O)CC[C@H](NC(=O)CCCCCCCCCCCCCCCCC(=O)O)C(=O)O)C(=O)O)C(=O)O)C(=O)N[C@H](C(N)=O)[C@@H](C)O [Example 10, N^ε34-[2-[2-[2-[[2-[2-[2-[[(4S)-4-carboxy-4-[[(4S)-4-carboxy-4-[[(4S)-4-carboxy-4-(17-carboxyheptadecanoylamino)butanoyl]amino]butanoyl]amino]butanoyl]amino]ethoxy]ethoxy]acetyl]amino]ethoxy]ethoxy]acetyl]-[Imp7,His9,Lys18,Arg23,Arg26,Leu33,Thr35]-GLP-1-(7-35)-peptide amide] (Desaminohistidyl-AHGTFTSDVSKYLEGRAAREFIAWLLK([AEEA-AEEA-γGlu-γGlu-γGlu-C18 diacid])T-NH2)
Second: CC[C@H](C)[C@H](NC(=O)[C@H](Cc1ccccc1)NC(=O)[C@H](CCC(=O)O)NC(=O)[C@H](CCCNC(=N)N)NC(=O)[C@H](C)NC(=O)[C@H](C)NC(=O)[C@H](CCCNC(=N)N)NC(=O)[C@H](C)NC(=O)[C@H](CCC(=O)O)NC(=O)[C@H](CC(C)C)NC(=O)[C@H](Cc1ccc(O)cc1)NC(=O)[C@H](CCCCN)NC(=O)[C@H](CO)NC(=O)[C@@H](NC(=O)[C@H](CC(=O)O)NC(=O)[C@H](CO)NC(=O)[C@@H](NC(=O)[C@H](Cc1ccccc1)NC(=O)[C@@H](NC(=O)CNC(=O)[C@H](Cc1c[nH]cn1)NC(=O)C(C)(C)NC(=O)CCc1c[nH]cn1)[C@@H](C)O)[C@@H](C)O)C(C)C)C(=O)N[C@@H](C)C(=O)N[C@@H](Cc1c[nH]c2ccccc12)C(=O)N[C@@H](CC(C)C)C(=O)N[C@@H](CC(C)C)C(=O)N[C@@H](CCCCNC(=O)CC[C@H](NC(=O)COCCOCCNC(=O)COCCOCCNC(=O)CC[C@H](NC(=O)CC[C@H](NC(=O)CCCCCCCCCCCCCCCCC(=O)O)C(=O)O)C(=O)O)C(=O)O)C(=O)NCC(=O)NCC(=O)NCC(=O)O [Example 31, N^ε34-[(4S)-4-carboxy-4-[[2-[2-[2-[[2-[2-[2-[[(4S)-4-carboxy-4-[[(4S)-4-carboxy-4-(17-carboxyheptadecanoylamino)butanoyl]amino]butanoyl]amino]ethoxy]ethoxy]acetyl]amino]ethoxy]ethoxy]acetyl]amino]butanoyl]-[Imp7,Aib8,His9,Lys18,Ala22,Arg23,Arg26,Leu33,Gly36]-GLP-1-(7-37)-peptide] (Desaminohistidyl-[Aib]HGTFTSDVSKYLEARAAREFIAWLLK([γGlu-AEEA-AEEA-γGlu-γGlu-C18 diacid])GGG-OH)
The IC50 of the first is 3.3-fold higher: 1 nM for the first, 0.3 nM for the second. The second is the more potent here.
